Measurements reported in EP0034752A1, “Phenoxyalkane derivative and processes for preparing same” (Tanabe Seiyaku Co., Ltd., priority 1980, dated 1981).

Experiments:
[1] = tested on: intracranial pressure in rats; assay: Effect of i.v. injection of test compounds on intracranial pressure in rats; format: in vivo; conditions: for Change (%) in intra-cranial pressure: dose one mg/kg, i.v. infusion in 5 w/v % mannitol, anesthetized male SD-rats, value before administration = 100
Description: (Effect of i.v., injection of test compounds on intracranial pressure in rats)
Male SD-rats weighing 500 to 800 g (each group consisting of 5 rats) were anesthetized with urethane. A solution of a test compound in an aqueous 5 w/v % mannitol solution was infused via the femoral vein at a rate of 0.2 ml/kg/minute for 20 minutes (when the test compound was used in the form of free base, said solution was prepared by dissolving it in an aqueous 5 w/v % mannitol solution with the aid of 0.5 N hydrochloric acid). Intracranial pressure (i.e., cerebrospinal fluid pressure in the cisterna magna) was continuously monitored via a canula introduced in the cisterna magna. The canula was connected to a transducer, and recording were made on graph paper. The effect of the test compound on-the intracranial pressure was estimated in terms of the increase or decrease in intracranial pressure, which was calculated in accordance with the following formula: […]

[2] = tested on: central nervous system in mice; assay: Effect on spontaneous motor activity in mice; format: in vivo; conditions: Mus musculus, ip, 0.5 h; i.p., male mice; activity measured 30 minutes after administration; dose decreasing activity by 50 % of control; read-out: Effect on central nervous system (ED50, mg/kg) spontaneous mortor activity
Description: (§1) The effect of a test compound on central nervous system was examined by the following methods.
(1) Effect on spontaneous mortor activity:
A solution or suspension of a test compound in water or an aqueous carboxymethylcellulose solution was administered intraperitoneally to male mice weighing 18 to 20 g (each group consisting of 5 mice). Thirty minutes after administration of the test compound, the spontaneous mortor activity of the mice was measured with an animex activity meter for 5 minutes. The 50 % effective dose (ED50) of the test compound was estimated in terms of a dose which is necessary to decrease the mortor activity of the medicated mice by 50 % of that of a control group (i.e., non-medicated mice).

[3] = tested on: central nervous system in mice; assay: Effect on sodium hexobarbital-induced anesthesia in mice; format: in vivo; conditions: Mus musculus, ip, 0.5 h, male mice; sodium hexobarbital 100 mg/kg i.p. 30 minutes later; dose prolonging sleeping time twice that of control
Description: as §1
(2) Effect on sodium hexobarbital-induced anesthesia:
A solution or suspension of a test compound in water or an aqueous carboxymethylcellulose solution was administered intraperitoneally to male mice weighing 18 to 20 g (each group consisting of 5 mice). Thirty minutes after intraperitoneal administration of the test compound, sodium hexobarbital (100 mg/kg) was administered intraperitoneally to the mice, and the sleeping time was measured as the interval between the loss and recovery of the righting reflex. The 50.% effective dose (ED50) of the test compound was estimated in terms of dose which is necessary to prolong the sleeping time of the medicated mice twice as long as that of a control group (i.e., non-medicated mice).

[4] = tested on: central nervous system in mice; assay: Anti-apomorphine activity (cage climbing) in mice; format: in vivo; conditions: Mus musculus, ip, 0.5 h; i.p., male mice; apomorphine hydrochloride 2.5 mg/kg s.c. 30 minutes later; dose decreasing number of climbing mice by 50 %; read-out: Effect on central nervous system (ED50, mg/kg) Anti-apomorphine activity
Description: as §1
(3) Anti-apomorphine activity:
A solution or suspension of a test compound in water or an aqueous carboxymethylcellulose solution was administered intraperitoneally to male mice weighing 18 to 20 g (each group consisting of 5 mice). Thirty minutes after administration of the test compound, apomorphine hydrochloride (2.5 mg/kg) was administered subcutaneously to the mice, and the number of the mice which could climb a cage was examined. The 50 % effective dose (ED50) of the test compound was estimated in terms of a dose which is necessary to decrease the number of the medicated mice which could climb the cage by 50 % of the number of a control group (i.e., non-medicated mice) which could climb the cage.

[5] = Maximum tolerated dose, i.p.; parameters: species or system mice; conditions: mouse, in vivo, ip
[6] = 40 minutes after administration
[7] = 60 minutes after administration
[8] = 120 minutes after administration

Structure (SMILES) | decrease in the intracranial pressure ([1]; 40 minutes after administration, dose 1 mg/kg, infused via the femoral vein of rats in 5 w/v % mannitol for 20 minutes) | Change (%) in intra-cranial pressure [1, 6] [%] | Change (%) in intra-cranial pressure [1, 7] [%] | Change (%) in intra-cranial pressure [1, 8] [%] | ED50 [2] [mg/kg] | ED50 [3] [mg/kg] | ED50 [4] [mg/kg] | MTD [5] [mg/kg]
CC(=O)Nc1ccc(COCCCN2CCN(c3ccccc3)CC2)cc1 [1-(4-acetamidobenzyloxy)-3-(4-phenylpiperazino)-n-propane] | about 23% | 77.0 | 83.1 | 97.9 | – | – | – | –
COc1cc(NC(C)=O)ccc1OCC(C)CN1CCN(c2ccccc2)CC1 (centres unmarked) [1-(4-acetamido-2-methoxyphenoxy)-3-(4-phenylpiperazino)-2-methyl-n-propane] | – | 66.4 | 73.8 | 83.8 | – | – | – | –
COc1cc(NC(C)=O)ccc1OCCCN1CCC(O)(c2ccc(Cl)cc2)CC1 [1-(4-acetamido-2-methoxyphenoxy)-3-[4-(4-chlorophenyl)-4-hydroxy-piperidino]-n-propane] | – | 94.2 | 95.4 | 90.7 | – | – | – | –
COc1cc(NC(C)=O)ccc1COCCCN1CCN(c2ccccc2)CC1 [1-(4-acetamido-2-methoxybenzyloxy)-3-(4-phenylpiperazino)-n-propane] | – | – | – | – | 5 | 10 | 7 | 100
